pIC50: −log10 of the molar value. Where two headings read alike, the source gives them in different places.
How the values were obtained:
ATF4 = ATF4 expression inhibition assay (ATF4 5'UTR luciferase reporter, Tg-stressed HEK293T cells); format: cell-based, human; conditions: for inhibition at 0.1 µM: read-out: % ATF4 inhibition at 100 nM; for inhibition at 1 µM: read-out: % ATF4 inhibition at 1 μM; for pIC50: read-out: ATF4 inhbition IC50
Description: The ATF4 reporter was prepared by fusing the human full length 5′UTR of ATF4 (NCBI Accession No. BC022088.2) upstream of the firefly luciferase coding sequence lacking the initiator methionine. The fused sequence was cloned into pLenti-EF1a-C-Myc-DDK-IRES-Puro cloning vector (Origen #PS100085) using standard methods. Virus production was carried out by using Lenti-X™ Packaging Single Shots Protocol (Clonetech #631276). Viral particles were used to transduce HEK293T cells (ATCC #CRL-3216, ATCC Manassas, Va.), which were subsequently selected with puromycin to generate stable cell line. Cells were maintained at 37° C. and 5% CO2 in DMEM-F12 (Hyclone #SH30023.02) supplemented with 10% heat-inactivated fetal bovine serum (Gibco #16000-044), 2 mM L-glutamine (Gibco #25030-081), 100 U/ml penicillin, and 100 μg/ml streptomycin (Gibco #15140-122).
HEK293T cells carrying the ATF4 luciferase reporter were plated on 96-well plates (Nunc) at 10,000 cells per well. Cells were treated two days after seeding with 100 nM thapsigargin (Tg) (Sigma-Aldrich #T9033) in the presence of 100 nM or 1 μM. For the assessment of the half-maximal inhibitory concentration (IC50) for selected compounds, dose-response assays were performed. Compounds were serially diluted using DMSO ranging from 0.1 nM to 1 μM. Cells without treatment or cells treated with Tg alone were used as controls. Assay plates containing cells were incubated for 3 hours at 37° C.
Luciferase reactions were performed using Luciferase Assay System (Promega #E1501) as specified by the manufacturer. Luminescence was read with an integration time of 1 s and a gain of 110 using a Cytation-5 multi-mode microplate reader (BioTek). Relative luminescence units were normalized to Tg treatment (0% inhibition) and untreated cells (100% inhibition) and the percentage of ATF4 inhibition was calculated.
Percentages of ATF4 inhibition after induction with Tg in the presence of 100 nM or 1 μM of certain test compounds are shown in Table 2. Also shown in Table 2 is the calculated IC50 for certain test compounds. […] Accordingly, inhibition of ATF4 expression as a result of the test compound indicates suppression of the ISR pathway.

[1] = test system: Chinese hamster ovary (CHO) cells; assay: Protein translation assay (puromycin labelling, CHO cells); format: cell-based; conditions: media alone = 100%; for activity at 1 µM: Cricetulus griseus, CHO
Description: Chinese hamster ovary (CHO) cells were maintained at 37° C. and 5% CO2 in Dulbecco's Modified Eagle's Media (DMEM) supplemented with 10% fetal bovine serum, 2 mM L-glutamine, 100 U/ml penicillin, and 100 μg/ml streptomycin. After reaching 80% of confluence, cells were detached and seeded on 6 well plates in complete media, allowed to recover overnight and treated for 2 hours with 1 μM of the test compound (to assess protein synthesis levels in unstressed condition), or for 1 hour with 100 nM or 1 μM of the test compound and then co-treated with 300 nM Tg and 100 nM or 1 μM of the test compound (to assess the recovery of protein synthesis in a stressed condition). Cells treated with Tg alone were used as controls.
After the 2 hours treatments, media were replaced by adding 10 μg/ml puromycin (Sigma Aldrich #P8833) in complete media for 30 min. Media were removed and cells were lysed with SDS-PAGE lysis buffer. Lysates were transferred to 1.5 ml tubes and sonicated for 3 min and total protein amount were quantified using BCA Protein Assay Kit (Pierce). Equal amount of protein (30 μg) was loaded on SDS-PAGE gels. Proteins were transferred onto 0.2 μm PVDF membranes (BioRad) and probed with primary antibodies diluted in Tris-buffered saline supplemented with 0.1% Tween 20 (Merck #S6996184 505) and 3% bovine serum albumin (Rockland #BSA-50).
Puromycin (12D10) (Merck #MABE343) and β-actin (Sigma Aldrich #A5441) antibodies were used as primary antibody. A HRP-conjugated secondary antibody (Rockland) was employed to detect immune-reactive bands using enhanced chemiluminescence (ECL Western Blotting Substrate, Pierce). Quantification of protein bands was done by densitometry using ImageJ software.
Percent increase of protein synthesis in unstressed cells (without Tg treatment) in the presence of media alone or certain test compounds is shown in Table 3 The percentage levels were normalized to the media alone condition, which correspond to 100% protein synthesis.
Percent recovery of protein synthesis in stressed cells (with Tg treatment) due to the test compounds at 100 nM or 1 μM is also shown in Table 3. The levels were normalized to the media alone and to Tg alone conditions, which correspond to 100% and 0% respectively.

[2] = 2 h, unstressed CHO cells, 1 μM, 2 hours, read-out: % Protein synthesis in unstressed cells (1 μM test compound)
[3] = CHO cells stressed with 300 nM Tg, 1 μM compound, Tg alone = 0%, read-out: % Recovery of protein expression (1 μM test compound)
[4] = 100 nM thapsigargin, 3 hours, HEK293T ATF4 luciferase reporter
[5] = Homo sapiens, HEK-293T, 3 h, 100 nM test compound, 100 nM thapsigargin, 3 hours, HEK293T ATF4 luciferase reporter
[6] = Homo sapiens, HEK-293T, 3 h, 1 μM test compound, 100 nM thapsigargin, 3 hours, HEK293T ATF4 luciferase reporter
[7] = unstressed CHO cells, 1 μM, 2 hours
[8] = 100 nM test compound, 100 nM thapsigargin, 3 hours, HEK293T ATF4 luciferase reporter
[9] = 1 μM test compound, 100 nM thapsigargin, 3 hours, HEK293T ATF4 luciferase reporter
[10] = Homo sapiens, HEK-293T, 3 h, 100 nM thapsigargin, 3 hours, HEK293T ATF4 luciferase reporter

| Structure (SMILES) | inhibition at 0.1 µM (ATF4; Homo sapiens, HEK-293T, 3 h) [%] | inhibition at 1 µM (ATF4; Homo sapiens, HEK-293T, 3 h) [%] | pIC50 (ATF4; Homo sapiens, HEK-293T, 3 h) | activity at 1 µM [1, 2] [%] | activity at 1 µM [1, 3] [%] | pIC50 (ATF4; [4]) | inhibition at 0.1 µM (ATF4; [5]) [%] | inhibition at 1 µM (ATF4; [6]) [%] | % Protein synthesis in unstressed cells (1 μM test compound) [1, 7] [%] | % ATF4 inhibition at 100 nM (ATF4; [8]) [%] | % ATF4 inhibition at 1 μM (ATF4; [9]) [%] | % Recovery of protein expression (1 μM test compound) ([1]; CHO cells stressed with 300 nM Tg, 1 μM compound, Tg alone = 0%) [%] | pIC50 (ATF4; [10]) |
| --- | --- | --- | --- | --- | --- | --- | --- | --- | --- | --- | --- | --- | --- |
| O=C(NN1CCC(NCC(O)COc2ccc(Cl)c(F)c2)CC1)c1ccc2cc(Cl)ccc2n1 (stereo not shown) [Compound 20, 6-chloro-N-(4-((3-(4-chloro-3-fluorophenoxy)-2-hydroxypropyl)amino)piperidin-1-yl)quinoline-2-carboxamide] | 24.7 | 33.7 | < 5.00 | 155 | 358 |  |  |  |  |  |  |  |  |
| O=C(NN1CCC(NCC(O)COc2ccc(Cl)c(F)c2)CC1)c1cc2cc(Cl)ccc2o1 (stereo not shown) [Compound 21, 5-chloro-N-(4-((3-(4-chloro-3-fluorophenoxy)-2-hydroxypropyl)amino)piperidin-1-yl)benzofuran-2-carboxamide] | 68.6 | 86.9 | 7.21 | 129 | 236 |  |  |  |  |  |  |  |  |
| O=C(COc1ccc(Cl)c(F)c1)NN1CCC(NCCOc2ccc(Cl)c(F)c2)CC1 [Compound 22, 2-(4-chloro-3-fluorophenoxy)-N-(4-((2-(4-chloro-3-fluorophenoxy)ethyl)amino)piperidin-1-yl)acetamide] | 87.5 | 92.8 | 7.99 | 94.8 | 105 |  |  |  |  |  |  |  |  |
| O=C(NN1CCC(NCCOc2ccc(Cl)c(F)c2)CC1)c1ccc2cc(Cl)ccc2n1 [Compound 23, 6-chloro-N-(4-((2-(4-chloro-3-fluorophenoxy)ethyl)amino)piperidin-1-yl)quinoline-2-carboxamide] | 67.2 | 89.3 | 7.25 | 178 | 249 |  |  |  |  |  |  |  |  |
| O=C(NN1CCC(NCCOc2ccc(Cl)c(F)c2)CC1)c1cc2cc(Cl)ccc2o1 [Compound 24, 5-chloro-N-(4-((2-(4-chloro-3-fluorophenoxy)ethyl)amino)piperidin-1-yl)benzofuran-2-carboxamide] | 88 | 99.5 | 7.49 | 144 | 183 |  |  |  |  |  |  |  |  |
| O=C(COc1ccc(Cl)c(F)c1)NN1CCN(C(=O)COc2ccc(Cl)c(F)c2)CC1 [Compound 30, 2-(4-chloro-3-fluorophenoxy)-N-(4-(2-(4-chloro-3-fluorophenoxy)acetyl)piperazin-1-yl)acetamide] | 29.5 | 97.1 | 6.73 | 49.3 | 31.7 |  |  |  |  |  |  |  |  |
| O=C(COc1ccc(Cl)c(F)c1)NC1CCN(NC(=O)C2CNc3cc(Cl)ccc3O2)CC1 (stereo not shown) [Compound 31, 6-chloro-N-(4-(2-(4-chloro-3-fluorophenoxy)acetamido)piperidin-1-yl)-3,4-dihydro-2H-benzo[b][1,4]oxazine-2-carboxamide] |  |  |  |  |  | 8.38 | 94.8 | 92.7 | 155.4 |  |  |  |  |
| O=C(COc1ccc(Cl)c(F)c1)NN1CCC(NC(=O)C2CNc3cc(Cl)ccc3O2)CC1 (stereo not shown) [Compound 32] |  |  |  |  |  | 7.92 |  |  | 115.7 | 85.7 | 92.4 | 74.8 |  |
| O=C(NN1CCN(CCCOc2ccc(Cl)c(F)c2)CC1)C1CNc2cc(Cl)ccc2O1 (stereo not shown) [Compound 44, 6-chloro-N-(4-(3-(4-chloro-3-fluorophenoxy)propyl)piperazin-1-yl)-3,4-dihydro-2H-benzo[b][1,4]oxazine-2-carboxamide] | 51.5 | 82 | 6.82 | 146 | 120 |  |  |  |  |  |  |  |  |
| O=C(COc1ccc(Cl)cc1)NC1CCN(NC(=O)COc2ccc(Cl)cc2)CC1 [Compound 45, N,N′-(piperidine-1,4-diyl)bis(2-(4-chlorophenoxy)acetamide)] | 92.7 | 92.4 | 8.59 | 114 | 82.3 |  |  |  |  |  |  |  |  |
| O=C(COc1ccc(Cl)c(F)c1)NC1CCN(NC(=O)[C@H]2CNc3cc(Cl)ccc3O2)CC1 [Compound 46, (R)-6-chloro-N-(4-(2-(4-chloro-3-fluorophenoxy)acetamido)piperidin-1-yl)-3,4-dihydro-2H-benzo[b][1,4]oxazine-2-carboxamide] |  |  |  | 114 | 63.3 |  | 100 | 99.3 |  |  |  |  | 8.44 |
| O=C(COc1ccc(Cl)c(F)c1)NC1CCN(NC(=O)[C@@H]2CNc3cc(Cl)ccc3O2)CC1 [Compound 47, (S)-6-chloro-N-(4-(2-(4-chloro-3-fluorophenoxy)acetamido)piperidin-1-yl)-3,4-dihydro-2H-benzo[b][1,4]oxazine-2-carboxamide] |  |  |  |  |  | 8.70 |  |  | 89.4 | 98.2 | 99.0 |  |  |
| O=C(NN1CCN(C[C@@H](O)COc2ccc(Cl)c(F)c2)CC1)c1cc2cc(Cl)ccc2o1 [Compound 48, (R)-5-chloro-N-(4-(3-(4-chloro-3-fluorophenoxy)-2-hydroxypropyl)piperazin-1-yl)benzofuran-2-carboxamide] |  |  |  | 85.3 | 76.2 |  | 96.5 | 97.4 |  |  |  |  | 8.47 |
| O=C(NN1CCN(C[C@H](O)COc2ccc(Cl)c(F)c2)CC1)c1cc2cc(Cl)ccc2o1 [Compound 49, (S)-5-chloro-N-(4-(3-(4-chloro-3-fluorophenoxy)-2-hydroxypropyl)piperazin-1-yl)benzofuran-2-carboxamide] |  |  |  | 82.3 | 70.7 |  | 55.4 | 100 |  |  |  |  | 7.16 |
| O=C(COc1ccc(Cl)c(F)c1)NN1CCC(NC[C@H](O)COc2ccc(Cl)c(F)c2)CC1 [Compound 53, (S)-2-(4-chloro-3-fluorophenoxy)-N-(4-((3-(4-chloro-3-fluorophenoxy)-2-hydroxypropyl)amino)piperidin-1-yl)acetamide] |  |  |  | 83.7 | 46.2 |  | 36.1 | 69.8 |  |  |  |  | 6.57 |
